Data: patent publication US20190062697A1, “Cell Differentiation Marker and its Uses” (Centre National De La Recherche Scientifique (CNRS), priority 2013, published 2019)

Tests used:
[1] = system: deubiquitylating enzymes (DUBs); conditions: cited from earlier work
Cdc25A mRNA = experiment: qPCR quantification of Cdc25A mRNA in ES cells; type: cell-based, mouse
Experimental: FIG. 6I is a histogram showing qPCR quantification of Cdc25A normalised to multiple reference genes expressed as percentage of control. ES cells were transfected with control (Luc), β-TrCP (1), Cdh1 (2) or Dub3 (3) RNAi sequences and collected 48 hours after transfection. Bars represent the mean±SD of triplicate observations.
FIG. 7C is a histogram showing the qPCR quantification of Cdc25A mRNA normalised to multiple reference genes. ES cells were transfected with control (1), Dub3 (2) or Cdc25A (3) RNAi sequences.
(§1) FIG. 9A is a graph showing qPCR quantification of Cdc25A (curves with black squares) and Dub3 (curves with triangles) mRNA in ES cells treated with increasing concentration of the selective Esrrb and Esrrg agonist DY131 (indicated doses in μM) for 16 hours. Bars represent the fold induction±SD of triplicate observations.
(§2) Briefly, ES cells were maintained in Glasgow MEM BHK-21 (GMEM) supplemented with 10% fetal bovine serum, non-essential amino acids, L-glutamine, sodium pyruvate, β-mercapthethanol. NIH-3t3 cells were maintained in Dulbecco's modified eagle's medium (DMEM) supplemented with 10% fetal bovine serum, 2 mM glutamine and antibiotics. […]
(§3) Total RNA was isolated with TRIzol reagent (Invitrogen). […] Quantitative PCRs were performed using Lightcycler SYBR Green I Master mix (Roche) on Lightcycler apparatus (Roche). […]

Dub3 mRNA = experiment: qPCR quantification of Dub3 mRNA in ES cells; type: cell-based, mouse; conditions: increasing dose of DY131, 16 hours
Experimental: as §1
FIG. 9C is a histogram showing qPCR quantification of Esrrb (1) and Dub3 (2) mRNA normalised to multiple reference genes expressed as percentage of control in presence of DY131. ES cells were transfected with control (Crtl) RNAi (white bars) or Esrrb specific RNAi sequence (black bars). Data are expressed as mean±SD (error bars) of multiple observations.
as §2, with “antibiotics. The viruses-containing conditioned medium was incubated on exponentially growing NIH-3t3 cells for 24 hours in the presence of polybrene ([…]).” for “antibiotics.”
as §3

Cdc25A = experiment: Western blot analysis of Cdc25A protein levels in ES cells; type: cell-based, mouse
Experimental: Cells were UV-irradiated and incubated with cycloheximide (Cx) in absence or presence of Chk1 inhibitor SB218078, collected at the indicated times (min) and analyzed by western blotting. Cdc25A expression (#1) and β-actin (#2; as control) are shown.
FIG. 6J is a western blot analysis of Cdc25A protein expression in Luciferase (a.), β-TrCP (b.) and Cdh1 (c.) RNAi-transfected cells. Expression of Cdc25A (#1) and β-actin (#2) is shown.
Expression of CDC25A (#1), Cdc25C (#2) and β-actin (#3, as control) is represented.
FIG. 9B is a western blot analysis of Cdc25A protein levels in ES cells treated with increasing concentrations (in μM) of the DY131 agonist for 16 hours. Cdc25A (#1) and β-actin (#2, as control) protein expression is represented.
Cells were rinsed once in PBS and then incubated with ice cold lysis buffer (50 mM Tris-HCl pH 7.4, 100 mM NaCl, 50 mM NaF, 5 mM EDTA, 40 mM β-glycero-phosphate, 1% Triton X-100 and protease inhibitors) for 30 min on ice before scraping. Whole cell extracts were clarified by centrifugation at 12000 rcf for 10 min at 4° C. Protein concentration of the clarified lysates was estimated using BCA method (Pierce). Equal amount of protein was used for western blot analysis. All antibodies were incubated overnight at 4° C. in phosphate-buffered saline (PBS) containing 1% BSA and 0.1% Tween (Sigma). Antibodies used from Cell Signaling: Chk1S345P (2341), p53S15P (9284), γH2AX (2577), CDK2Y15P (9111), Myc-Tag (2276); Active caspase 3 (9961); Abcam: DNA polα (ab31777), H3 (ab1791), CDK2 (ab6538), PSTAIR (ab10345), GFP (ab290), MCM2 (ab4461); Suds3 (ab3740) Santa Cruz: Cdc45 (sc-20685), Cdc25A (sc-7389), Chk1 (sc-8408), Cyclin B1 (sc-245), Cdc25C (sc-327), Cdc25B (sc-65504), p21 (sc-6246), RhoA (sc-418); anti-goat IgG-HRP (sc-2020) Sigma: (PC10), β-actin (A1978), Cyclin A (C7410), Anti-Flag M2 (F1804), Oct4 (Chemicon, AB3209), and Millipore, Nestin (Ab353), H3S10P (Millipore 09-797). Wee1 (kindly provided by T. Lorca, CRBM Montpellier).

ES cells [2] = experiment: FACS cell cycle analysis of asynchronously growing ES cells treated with roscovitine; type: cell-based, mouse; conditions: increasing concentration of roscovitine
Experimental: FIG. 5C is FACS analysis of asynchronously growing ES cells treated with increasing concentration of Roscovitine (in μM; Z-axis). Roscovitine is a potent and selective inhibitor of cyclin-dependent kinases, […]. X-axis represents DNA content (expressed in propidium iodide fluorescence) and Y-axis represents the number of cells.
Single-cell suspensions were prepared by trypsinisation and washed once in PBS. Cells were fixed in ice-cold 70% ethanol (−20° C.) and stored at −20° C. overnight. Following RNAse A treatment, total DNA was stained with propidium iodide (25 μg/ml). For BrdU uptake analysis, ES cells and NIH-3t3 cells were grown in the presence of 10 μM BrdU for respectively 10 and 30 minutes. The BrdU content was determined by reaction with a fluorescein isothiocyanate (FITC)-conjugated anti-BrdU antibody (BD Biosciences). Cells were analyzed with a FACScalibur flow cytometer using CellQuestPro software.

ES cells [3] = experiment: BrdU pulse-labelling / FACS of synchronized ES cells UV-irradiated in G1 (S-phase entry); type: cell-based, mouse; conditions: 24 hours knockdown, UV light in G1, collected 2 hours after UV
Experimental: FIG. 4F is a histogram showing Cdc25A downregulation in G1 delay upon DNA damage. Control (a.) and Cdc25A (b.) RNAi-transfected cells were released from nocodazole and exposed to UV light in G1 (t=2) and collected 2 hours (t=4) after UV-(+) or mock-irradiation (−). Prior to collection cells were pulse-labelled with BrdU. Fraction (expressed as %) of diploid BrdU negative cells is plotted (data are represented as mean±SD). Statistical differences is indicated with a single asterisk (*) for P<0.05. Y-axis represents the percentage of cells in G1.
ES cells were arrested in prometaphase by nocodazole (Sigma) for 4-8 hours. After mitotic-shake off cells were washed 3 times in ice-cold PBS and dissolved in full ES growth medium. Cells were incubated in a humidified atmosphere of 5% CO2 at 37° C. for 45 minutes and placed at 30° C. for 1 hour to reduce S phase entry. Cells were mock- or UV-irradiated (6 J/m2) and incubated at 37° C. prior collection. To synchronise NIH-3t3 cells in G0 cells were grown to confluence and incubated for 2-3 days. Next, cells were washed, resuspended and split at 30% confluency. […]
Single-cell suspensions were prepared by trypsinisation and washed once in PBS. […] The BrdU content was determined by reaction with a fluorescein isothiocyanate (FITC)-conjugated anti-BrdU antibody (BD Biosciences). Cells were analyzed with a FACScalibur flow cytometer using CellQuestPro software.

CDK2^Y15P = experiment: Western blot of inhibitory CDK2 Tyr15 phosphorylation upon DNA damage in G1; type: cell-based, mouse; conditions: 24 hours knockdown, UV light in G1
Excerpt: FIG. 4E is a western blot showing the downregulation of Cdc25A expression by RNAi resulting in increased inhibitory CDK2Tyr15 phosphorylation upon DNA damage in G1. Control (a.) and Cdc25A (b.) RNAi-transfected cells were released from nocodazole and exposed (+) to UV-light in G1. Samples were collected at the indicated times and analyzed by western blotting with the indicated antibodies: Cdc25A (#1), Cdk2^Y15P (#2), Cyclin B1 (#3), Chk1^S345P (#4), Chk1 (#5) and β-actin (#6; as control).
Western blot signals of FIG. 4E were quantified by densitometry scanning and expressed as relative optical density (ROD) compared to Chk1 signal as loading control. Black bars represent cells treated with Cdc25A RNAi (a.) and white bars represent cells treated with control RNAi (b.).
Cells were rinsed once in PBS and then incubated with ice cold lysis buffer (50 mM Tris-HCl pH 7.4, 100 mM NaCl, 50 mM NaF, 5 mM EDTA, 40 mM β-glycero-phosphate, 1% Triton X-100 and protease inhibitors) for 30 min on ice before scraping. Whole cell extracts were clarified by centrifugation at 12000 rcf for 10 min at 4° C. Protein concentration of the clarified lysates was estimated using BCA method (Pierce). Equal amount of protein was used for western blot analysis. All antibodies were incubated overnight at 4° C. in phosphate-buffered saline (PBS) containing 1% BSA and 0.1% Tween (Sigma). […]

ES cells [4] = experiment: Clonogenic assay of ES cells with alkaline phosphatase (AP) staining; type: cell-based, mouse; conditions: prolonged (7 days) RNAi knockdown, in the presence of LIF
Experimental: FIG. 12M is a histogram showing a clonogenic assay of ES cells upon prolonged control (1), Dub3 (2) or Cdc25a (3) targeting RNAi sequence. Cells were plated at clonal density in LIF-containing serum and stained for AP after 7 days. Columns show the percentage of alkaline phosphatase (AP) positive (dark grey) or negative (light grey) colonies. At least 150 colonies were scored.

[5] = increasing dose of DY131, 16 hours, ES cells
[6] = RNAi-mediated knockdown in ES cells

N#CSc1cc(SC#N)c(N)nc1N [PR-619]
accumulation of polyubiquitylated proteins in cells [1]: induces the accumulation of polyubiquitylated proteins in cells | proteasome activity [1]: without directly affecting proteasome activity

CCN(CC)c1ccc(/C=N/NC(=O)c2ccc(O)cc2)cc1 [DY131]
Cdc25A transcript level (Cdc25A mRNA; [5]): without affecting Cdc25A transcript level | Dub3 gene expression (Dub3 mRNA): boosted Dub3 gene expression | Cdc25A protein abundance (Cdc25A; [5]): increased Cdc25A protein abundance

CC[C@H](CO)Nc1nc(NCc2ccccc2)c2ncn(C(C)C)c2n1 [roscovitine]
G1 cells (ES cells [2]): dose-dependent increase of G1 cells | fraction of S phase cells (ES cells [2]): reduced the fraction of S phase cells

5′-GAAAUUUCCCUGACGAGAA-3′ (listed as RNA, chemistry not given here) [Cdc25A RNAi]
BrdU-negative cells with 2N DNA content (ES cells [3]): significant, UV-dependent, increase of BrdU-negative cells with 2N DNA content | CDK2^Y15P levels (CDK2^Y15P): increased CDK2^Y15P levels | alkaline phosphatase (AP)-negative colonies (ES cells [4]): A very similar result was also observed

O=C1NC(=O)c2c1c1c3ccccc3n3c1c1c2c2ccccc2n1C1CCC3O1 [SB218078]
Cdc25A destruction upon DNA damage (Cdc25A; UV-irradiated ES cells with cycloheximide, absence or presence of Chk1 inhibitor): rapid Cdc25A destruction upon DNA damage is Chk1-dependent

5′-GGCUGUAAGAUGUGUGCUA-3′ (listed as RNA, chemistry not given here) [Dub3 RNAi]
Cdc25A mRNA level (Cdc25A mRNA; [6]): did not affect Cdc25A mRNA level | alkaline phosphatase (AP)-negative colonies (ES cells [4]): increase of alkaline phosphatase (AP)-negative colonies | reduction of Cdc25A protein abundance (Cdc25A; [6]): 3 fold
